Assay results from patent US10729815B2, “Combined treatment for nerve injuries” (Ramot at Tel-Aviv University Ltd., priority 2016, dated 2020).

Columns and labels:
[1] = tested on: astrocytes cultures of human brain cells, derived from astrocytoma, U-87 MG; assay: In-vitro effect of anti-gliotic agents on 35S-GAG accumulation in activated astrocytes; assay type: cell-based; details: 48 h
Description: (§1) Cell culture—Astrocytes cultures of human brain cells, derived from astrocytoma, U-87 MG (ATCC® HTB-14™, American Type Culture Collection, Rockville, Md., USA) were cultured in growth medium [10% Fetal Bovine Serum (FBS) and 1% Penicillin-Streptomycin solution (PS) in Minimum Essential Medium (MEM)]. […] The cell suspension (5×10^5 cells/well) was seeded into a 6-well plate (500 μl/well) containing 1.5 ml/well of assay medium, incubated for 24±1 hours at […], 5% CO2, and then examined microscopically. Following, at 90% cell confluence, the plates were treated according to the following groups:
(§2) The anti-gliotic agents were added as follows: Chondroitinase ABC (0.2 U/ml), Collagenase (2 mg, 50 μl), β-D-Xyloside (2.5 mM, 20 μl), MMPs-3 (0.5 μg, 20 μl), Anti TGFβ 1,2&3 (10 μg, 20 μl), Mitomycin C (50 μg, 25 μl), ACE human recombinant (0.5 μg, 25 μl) and Anti-Nogo A (5 U, 25 μl).
Astrocytes activation causes glycosaminoglycans (GAGs) accumulation in cultures, both intracellularly, pericellularly and extracellularly. Therefore, GAGs can serve as a tracer for either formation or elimination of the scar barrier.

[2] = tested on: astrocytes cultures of human brain cells, derived from astrocytoma, U-87 MG; assay: In-vitro effect of anti-gliotic agents on astrocytes survival (cell counting); assay type: cell-based; details: 48 h
Description: as §1, §2

[3] = activated with Bt2-cAMP + theophylline plus anti-gliotic agent
[4] = activated with Bt2-cAMP + theophylline plus anti-gliotic agent, values multiplied 6 times (normalized to vital cell survivors)
[5] = astrocytes activated with Bt2-cAMP 1 mM + theophylline 0.25 mM plus the anti-gliotic agent

O=[N+]([O-])c1ccc(O[C@@H]2OC[C@@H](O)[C@H](O)[C@H]2O)cc1 [β-D-Xyloside, 4-Nitrophenyl β-D-xylopyranoside, reference compound]
% of Isolated 35S-GAGs (relative to the theophylline control) [1, 3]: 78.5% | Isolated 35S-GAGs Average + SD [1, 4]: 61,016 + 21,506 | % of cells (cell percentage in astrocyte cultures relative to untreated cultures) [2, 5]: 54.7%

CCCC(=O)Nc1ncnc2c1ncn2[C@@H]1O[C@@H]2COP(=O)([O-])O[C@H]2[C@H]1OC(=O)CCC.[Na+] [Bt2-cAMP, N6,2′-O-Dibutyryladenosine 3′,5′-cyclic monophosphate, sodium salt, reference compound]
Isolated 35S-GAGs Average + SD ([1]; activator(s) only, theophylline well multiplied 6 times (normalized to vital cell survivors)): 34,872 + 2,946 | % of cells (cell percentage in astrocyte cultures relative to untreated cultures) ([2]; activator(s) only, no anti-gliotic agent, Bt2-cAMP 1 mM, theophylline 0.25 mM): 32.8%

Collagenase
% of Isolated 35S-GAGs (relative to the theophylline control) [1, 3]: 66.1% | Isolated 35S-GAGs Average + SD [1, 4]: 51,371 + 10,556 | % of cells (cell percentage in astrocyte cultures relative to untreated cultures) [2, 5]: 39.1%

MMPs-3: MMP-3-Matrix Metalloproteinase, human Stromlysin STR1 (Sigma SRP 7783)
% of Isolated 35S-GAGs (relative to the theophylline control) [1, 3]: 82.3% | Isolated 35S-GAGs Average + SD [1, 4]: 63,941 + 11,374 | % of cells (cell percentage in astrocyte cultures relative to untreated cultures) [2, 5]: 23.2%

Chondroitinase ABC
% of Isolated 35S-GAGs (relative to the theophylline control) [1, 3]: 5.5% | Isolated 35S-GAGs Average + SD [1, 4]: 4,299 + 939 | % of cells (cell percentage in astrocyte cultures relative to untreated cultures) [2, 5]: 33.1%

B1: ACE human recombinant: Angiotensin Converting Enzyme Human recombinant (Biotest 929-ZN) (protein, UniProt P12821 30-1306, looked up)
Angiotensin-converting enzyme: LDPGLQPGNFSADEAGAQLFAQSYNSSAEQVLFQSVAASWAHDTNITAENARRQEEAALLSQEFAEAWGQKAKELYEPIWQNFTDPQLRRIIGAVRTLGSANLPLAKRQQYNALLSNMSRIYSTAKVCLPNKTATCWSLDPDLTNILASSRSYAMLLFAWEGWHNAAGIPLKPLYEDFTALSNEAYKQDGFTDTGAYWRSWYNSPTFEDDLEHLYQQLEPLYLNLHAFVRRALHRRYGDRYINLRGPIPAHLLGDMWAQSWENIYDMVVPFPDKPNLDVTSTMLQQGWNATHMFRVAEEFFTSLELSPMPPEFWEGSMLEKPADGREVVCHASAWDFYNRKDFRIKQCTRVTMDQLSTVHHEMGHIQYYLQYKDLPVSLRRGANPGFHEAIGDVLALSVSTPEHLHKIGLLDRVTNDTESDINYLLKMALEKIAFLPFGYLVDQWRWGVFSGRTPPSRYNFDWWYLRTKYQGICPPVTRNETHFDAGAKFHVPNVTPYIRYFVSFVLQFQFHEALCKEAGYEGPLHQCDIYRSTKAGAKLRKVLQAGSSRPWQEVLKDMVGLDALDAQPLLKYFQPVTQWLQEQNQQNGEVLGWPEYQWHPPLPDNYPEGIDLVTDEAEASKFVEEYDRTSQVVWNEYAEANWNYNTNITTETSKILLQKNMQIANHTLKYGTQARKFDVNQLQNTTIKRIIKKVQDLERAALPAQELEEYNKILLDMETTYSVATVCHPNGSCLQLEPDLTNVMATSRKYEDLLWAWEGWRDKAGRAILQFYPKYVELINQAARLNGYVDAGDSWRSMYETPSLEQDLERLFQELQPLYLNLHAYVRRALHRHYGAQHINLEGPIPAHLLGNMWAQTWSNIYDLVVPFPSAPSMDTTEAMLKQGWTPRRMFKEADDFFTSLGLLPVPPEFWNKSMLEKPTDGREVVCHASAWDFYNGKDFRIKQCTTVNLEDLVVAHHEMGHIQYFMQYKDLPVALREGANPGFHEAIGDVLALSVSTPKHLHSLNLLSSEGGSDEHDINFLMKMALDKIAFIPFSYLVDQWRWRVFDGSITKENYNQEWWSLRLKYQGLCPPVPRTQGDFDPGAKFHIPSSVPYIRYFVSFIIQFQFHEALCQAAGHTGPLHKCDIYQSKEAGQRLATAMKLGFSRPWPEAMQLITGQPNMSASAMLSYFKPLLDWLRTENELHGEKLGWPQYNWTPNSARSEGPLPDSGRVSFLGLDLDAQQARVGQWLLLFLGIALLVATLGLSQRLFSIRHRSLHRHSHGPQFGSEVELRHS
% of Isolated 35S-GAGs (relative to the theophylline control) [1, 3]: 22.9% | Isolated 35S-GAGs Average + SD [1, 4]: 17,814 + 2,201 | % of cells (cell percentage in astrocyte cultures relative to untreated cultures) [2, 5]: 70.4%
